Reference: patent US20250230193A1, “CYCLIC COMPOUND HAVING SELECTIVE KRAS INHIBITORY EFFECT ON HRAS AND NRAS” (CHUGAI SEIYAKU KABUSHIKI KAISHA, priority 2022, published 2025)
*1 amine or outer side, *2 acyl side, *3 side chain or, on linkers, in order; H or OH if unused. Where a SMILES comes first, the peptide text is derived from it. Bridges are numbered along the chain shown (N, C = ends). [ ]: non-standard residue; d: D form. The star is where a group is joined. hPhe(3-Cl-4-CF3) = N[C@@H](CCc1ccc(C(F)(F)F)c(Cl)c1)C(=O)O; NPrPhe(4-CF3) = CCCN[C@@H](Cc1ccc(C(F)(F)F)cc1)C(=O)O; X29 = Cc1ccc(C[C@@H](C(=O)[*:2])N(CC2CCCC2)[*:1])cc1; NMeGly(cPent) = CN[C@H](C(=O)O)C1CCCC1; Hyp = O=C(O)[C@@H]1C[C@@H](O)CN1; NMeD = CN[C@@H](CC(=O)O)C(=O)O; NMeL = CN[C@@H](CC(C)C)C(=O)O; Morpholide = C1CN(*)CCO1; NMeA = CN[C@@H](C)C(=O)O; Ac5c = NC1(C(=O)O)CCCC1; Aze = O=C(O)[C@@H]1CCN1; NEtG = CCNCC(=O)O; Sar = CNCC(=O)O

Experiments:
[1] = molecular target: GDP-bound HRAS wild-type protein (Homo sapiens, UniProt P01112); test: Binding to HRAS by surface plasmon resonance (SPR), Single Cycle Kinetics
Chain of GDP-bound HRAS wild-type protein (P01112 whole entry): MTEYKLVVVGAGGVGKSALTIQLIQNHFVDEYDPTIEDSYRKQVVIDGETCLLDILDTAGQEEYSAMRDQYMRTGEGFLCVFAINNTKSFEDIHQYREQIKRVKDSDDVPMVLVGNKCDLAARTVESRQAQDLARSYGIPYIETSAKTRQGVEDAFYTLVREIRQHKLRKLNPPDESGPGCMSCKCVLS

[2] = molecular target: GDP-bound NRAS wild-type protein (Homo sapiens, UniProt P01111); test: Binding to NRAS by surface plasmon resonance (SPR), Single Cycle Kinetics
Chain of GDP-bound NRAS wild-type protein (P01111 whole entry): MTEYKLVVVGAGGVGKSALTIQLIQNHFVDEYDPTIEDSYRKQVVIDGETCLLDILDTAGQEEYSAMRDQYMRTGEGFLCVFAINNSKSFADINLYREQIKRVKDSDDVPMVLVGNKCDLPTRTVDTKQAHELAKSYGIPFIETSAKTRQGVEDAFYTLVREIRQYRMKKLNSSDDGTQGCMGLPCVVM

[3] = KD ratio, GDP-bound HRAS wild-type vs GDP-bound KRAS wild-type, SPR
[4] = KD ratio, GDP-bound NRAS wild-type vs GDP-bound KRAS wild-type, SPR

CCO[C@@H]1C[C@H]2C(=O)NC3(CCC3)C(=O)N(C)[C@@H](C3CCCC3)C(=O)N(C)[C@H](C(=O)N(C)C)CC(=O)N(C)[C@@H](COC)C(=O)N[C@@H]([C@@H](C)CC)C(=O)N(C)CC(=O)N(C)[C@H]3CCCCN(C3=O)[C@@H](Cc3ccc(C(F)(F)F)cc3)C(=O)N(C)CC(=O)N[C@@H](CCc3cc(F)c(C(F)(F)F)c(F)c3)C(=O)N2C1 [PP0704]
HRAS/KRAS (ratio of KD value with respect to GDP-bound HRAS wild-type protein to KD value with respect to KRAS) ([1]; SPR): C (A compound having a KD ratio of 0.1 or more and less than 3 is denoted as C)
NRAS/KRAS (ratio of KD value with respect to GDP-bound NRAS wild-type protein to KD value with respect to KRAS) ([2]; SPR): C (A compound having a KD ratio of 0.1 or more and less than 3 is denoted as C)

CCCN(C)C(=O)[C@@H]1CC(=O)N(C)[C@@H](COCC)C(=O)N[C@@H]([C@@H](C)CC)C(=O)N(C)CC(=O)N(C)[C@H]2C/C=C\CCN(C2=O)[C@@H](Cc2ccc(C(F)(F)F)cc2)C(=O)N(C)CC(=O)N[C@@H](CCc2ccc(C(F)(F)F)c(OC)c2)C(=O)N2C[C@H](OCC)C[C@H]2C(=O)NC2(CC(C)(C)C2)C(=O)N(C)[C@@H](C2CCCC2)C(=O)N1C [PP2012]
HRAS/KRAS (ratio of KD value for HRAS to KD value for KRAS) [1, 3]: A (a compound having 10 or more and less than 20 is denoted as A)
NRAS/KRAS (ratio of KD value for NRAS to KD value for KRAS) [2, 4]: AA (a compound having 20 or more is denoted as AA)

CCC[C@H]1C(=O)N[C@@H]([C@@H](C)CC)C(=O)N(C)CC(=O)N(C)[C@H]2C/C=C\CCN(C2=O)[C@@H](Cc2ccc(C)cc2)C(=O)N(C)CC(=O)N[C@@H](CCc2cc(Cl)c3sccc3c2)C(=O)N2C[C@H](OCC)C[C@H]2C(=O)NC2(CC(C)(C)C2)C(=O)N(C)[C@@H](C2CCCC2)C(=O)N(C)[C@H](C(=O)N(C)C)CC(=O)N1C [PP2947]
HRAS/KRAS (ratio of KD value with respect to GDP-bound HRAS wild-type protein to KD value with respect to KRAS) ([1]; class symbols): B (a compound having 3 or more and less than 10 is denoted as B)
NRAS/KRAS (ratio of KD value with respect to GDP-bound NRAS wild-type protein to KD value with respect to KRAS) ([2]; class symbols): B (a compound having 3 or more and less than 10 is denoted as B)

CCO[C@@H]1C[C@H]2C(=O)NC3(CCC3)C(=O)N(C)[C@@H](C(CC)CC)C(=O)N(C)[C@H](C(=O)N(C)C)CC(=O)N(C)[C@@H](C)C(=O)N[C@@H]([C@@H](C)CC)C(=O)N(C)CC(=O)N(C)[C@H]3C/C=C\CCN(C3=O)[C@@H](Cc3ccc(C(F)(F)F)cc3)C(=O)N(C)CC(=O)N[C@@H](CCc3cc(F)c(C(F)(F)F)c(F)c3)C(=O)N2C1 [PP1199]
HRAS/KRAS (ratio of KD value with respect to HRAS to KD value with respect to KRAS) [1, 3]: A (a compound having 10 or more and less than 20 is denoted as A)
NRAS/KRAS (ratio of KD value with respect to NRAS to KD value with respect to KRAS) [2, 4]: A (a compound having 10 or more and less than 20 is denoted as A)

CCCN1C(=O)CN(C)C(=O)CN(CC)C(=O)[C@H]([C@@H](C)CC)NC(=O)[C@H](CC(C)C)N(C)C(=O)C[C@@H](C(=O)N2CCOCC2)N(C)C(=O)[C@H](C2CCCC2)N(C)C(=O)C2(CCCC2)NC(=O)[C@@H]2C[C@@H](OC)CN2C(=O)[C@H](CCc2ccc(C(F)(F)F)c(Cl)c2)NC(=O)CN(C)C(=O)[C@@H]1Cc1ccc(C(F)(F)F)cc1 [PP0296] ([NMeL]I[NEtG][Sar][NPrPhe(4-CF3)][Sar][hPhe(3-Cl-4-CF3)][Hyp](Me)[Ac5c][NMeGly(cPent)][NMeD]-Morpholide; lactam N-11)
HRAS/KRAS (ratio of KD for GDP-bound HRAS wild-type to KD for KRAS) ([1]; SPR): C (A compound having a KD ratio of 0.1 or more and less than 3 is denoted as C)
NRAS/KRAS (ratio of KD for GDP-bound NRAS wild-type to KD for KRAS) ([2]; SPR): B (a compound having 3 or more and less than 10 is denoted as B)

CC[C@H](C)[C@@H]1NC(=O)[C@H](CC(C)C)N(C)C(=O)C[C@@H](C(=O)N2CCOCC2)N(C)C(=O)[C@H](C2CCCC2)N(C)C(=O)C2(CCCC2)NC(=O)[C@@H]2CCCN2C(=O)[C@H](CCc2ccc(C(F)(F)F)c(Cl)c2)NC(=O)CN(C)C(=O)[C@H](Cc2ccc(C)cc2)N(CC2CCCC2)C(=O)[C@@H]2CCN2C(=O)[C@H](C)N(C)C1=O [PP0084] ([NMeL]I[NMeA][Aze][X29][Sar][hPhe(3-Cl-4-CF3)]P[Ac5c][NMeGly(cPent)][NMeD]-Morpholide; lactam N-11)
HRAS/KRAS (ratio of KD for GDP-bound HRAS wild-type to KD for KRAS) ([1]; SPR): B (a compound having 3 or more and less than 10 is denoted as B)
NRAS/KRAS (ratio of KD for GDP-bound NRAS wild-type to KD for KRAS) ([2]; SPR): C (A compound having a KD ratio of 0.1 or more and less than 3 is denoted as C)

CCOC[C@H]1C(=O)N[C@@H]([C@@H](C)CC)C(=O)N(C)CC(=O)N(C)[C@H]2C/C=C\CCN(C2=O)[C@@H](Cc2ccc(C)cc2)C(=O)N(C)CC(=O)N[C@@H](CCc2ccc(C(F)(F)F)c(Cl)c2)C(=O)N2C[C@@H](C)C[C@H]2C(=O)NC2(CC(C)(C)C2)C(=O)N(C)[C@@H](C2CCCC2)C(=O)N(C)[C@H](C(=O)N(CC)CC)CC(=O)N1C [PP2465]
HRAS/KRAS (ratio of KD value with respect to HRAS to KD value with respect to KRAS) ([1]; SPR, GDP-bound HRAS wild-type vs GDP-bound KRAS wild-type): A (a compound having 10 or more and less than 20 is denoted as A)
NRAS/KRAS (ratio of KD value with respect to NRAS to KD value with respect to KRAS) ([2]; SPR, GDP-bound NRAS wild-type vs GDP-bound KRAS wild-type): AA (a compound having 20 or more is denoted as AA)
